Measured values reported in ChEMBL document CHEMBL4425166, “Discovery of Pyridinyl Acetamide Derivatives as Potent, Selective, and Orally Bioavailable Porcupine Inhibitors” (ACS Med Chem Lett, 2016).
In brackets after ≈: the same amount, converted by molar mass. Activity calls are given as the source filed them. No cut-off for these calls is given here.

Columns and labels:
[1] = Aqueous solubility of compound in buffer of pH 6.8 after 24 hrs by UV-based high throughput assay; type: physicochemical
[2] = biological target: T1, Protein-serine O-palmitoleoyltransferase porcupine (Mus musculus, UniProt Q9JJJ7); assay: Inhibition of PORCN in […] overexpressing Wnt3A co-cultured with TM3 cells transfected with Wnt-luciferase gene after 24 hrs by luminescence assay; type: cell-based
T1 sequence (Q9JJJ7 whole entry): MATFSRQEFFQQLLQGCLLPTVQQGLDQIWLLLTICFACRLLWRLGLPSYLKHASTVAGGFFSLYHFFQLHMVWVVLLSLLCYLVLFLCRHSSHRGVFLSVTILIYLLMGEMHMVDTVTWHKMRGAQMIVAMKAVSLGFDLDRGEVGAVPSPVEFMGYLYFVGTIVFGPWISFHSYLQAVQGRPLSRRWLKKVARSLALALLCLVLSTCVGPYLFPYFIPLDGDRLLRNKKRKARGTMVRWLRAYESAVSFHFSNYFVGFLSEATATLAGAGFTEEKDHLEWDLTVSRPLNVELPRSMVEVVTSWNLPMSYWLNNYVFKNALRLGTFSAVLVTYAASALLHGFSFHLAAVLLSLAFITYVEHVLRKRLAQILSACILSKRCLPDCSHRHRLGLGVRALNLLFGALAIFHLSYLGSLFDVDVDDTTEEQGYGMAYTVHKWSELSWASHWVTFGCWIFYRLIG

[3] = Dose normalized Cmax in Balb/c mouse at 5 mg/kg via oral gavage after 24 hrs by LC/MS/MS analysis; type: ADME, organism-based; conditions: in vivo
[4] = Dose normalized AUC in Balb/c mouse at 5 mg/kg via oral gavage after 24 hrs by LC/MS/MS analysis; type: ADME, organism-based; conditions: in vivo
[5] = biological target: T2, Protein-serine O-palmitoleoyltransferase porcupine (Homo sapiens, UniProt Q9H237); assay: Displacement of [3H]-GNF-1331 from human PORCN after 3 hrs by scintillation counting analysis
T2 sequence (Q9H237 whole entry): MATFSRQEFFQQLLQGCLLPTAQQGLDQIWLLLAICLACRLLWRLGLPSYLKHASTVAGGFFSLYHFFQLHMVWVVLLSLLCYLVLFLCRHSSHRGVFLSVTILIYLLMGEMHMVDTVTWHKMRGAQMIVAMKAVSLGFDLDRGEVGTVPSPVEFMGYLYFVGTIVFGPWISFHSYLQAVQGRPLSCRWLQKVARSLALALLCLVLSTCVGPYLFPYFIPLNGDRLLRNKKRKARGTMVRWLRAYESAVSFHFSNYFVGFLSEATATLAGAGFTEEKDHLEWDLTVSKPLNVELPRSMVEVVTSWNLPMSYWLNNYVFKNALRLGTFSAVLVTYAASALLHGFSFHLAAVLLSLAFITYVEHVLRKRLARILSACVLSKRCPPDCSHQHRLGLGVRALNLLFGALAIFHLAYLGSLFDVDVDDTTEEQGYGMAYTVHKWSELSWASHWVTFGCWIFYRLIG

Mus musculus [6] = assay: Antitumor activity in nude mouse MMTV-Wnt1 model assessed as tumor growth inhibition at 1 mg/kg, po qd administered for 2 weeks relative to control; type: functional
[7] = Toxicity in nude mouse MMTV-Wnt1 model assessed as body weight loss at 0.3 to 3 mg/kg, po qd administered for 2 weeks measured during compound dosing; type: organism-based; conditions: in vivo, 336 h
Mus musculus [8] = assay: Antitumor activity in nude mouse MMTV-Wnt1 model assessed as tumor growth inhibition at 3 mg/kg, po qd administered for 2 weeks relative to control; type: functional
[9] = Protein binding in dog plasma by rapid equilibrium dialysis; type: ADME, cell-free, Canis lupus familiaris; conditions: read-out: PPB
[10] = Oral bioavailability in rat by LC/MS/MS analysis; type: ADME, organism-based; conditions: in vivo
[11] = Terminal half life in Balb/c mouse at 2 mg/kg, iv or 5 mg/kg via oral gavage by LC/MS/MS analysis; type: ADME, organism-based; conditions: in vivo, read-out: beta t1/2 (converted)
Cytochrome P450 3A4 = Cytochrome P450 3A4 (Homo sapiens, UniProt P08684); assay: Inhibition of CYP3A4 (unknown origin); type: ADME
[12] = Oral bioavailability in Balb/c mouse at 5 mg/kg via gavage by LC/MS/MS analysis; type: ADME, organism-based; conditions: in vivo
[13] = Terminal half life in rat by LC/MS/MS analysis; type: ADME; conditions: in vivo, read-out: beta t1/2 (converted)
[14] = Protein binding in mouse plasma by rapid equilibrium dialysis; type: ADME, cell-free; conditions: read-out: PPB (converted)
Mus musculus [15] = assay: Inhibition of Axin2 mRNA level in nude mouse MMTV-Wnt1 model at 3 mg/kg administered as oral gavage measured after 24 hrs by RT-PCR analysis; type: functional, organism-based
[16] = Protein binding in monkey plasma by rapid equilibrium dialysis; type: ADME, cell-free, Macaca mulatta; conditions: rhesus monkey, read-out: PPB (converted)
[17] = Clearance in rat by LC/MS/MS analysis; type: ADME; conditions: in vivo
[18] = Protein binding in human plasma by rapid equilibrium dialysis; type: ADME, cell-free; conditions: read-out: PPB (converted)
[19] = Volume of distribution at steady state in rat by LC/MS/MS analysis; type: ADME; conditions: in vivo, read-out: Vdss
Mus musculus [20] = assay: Antitumor activity in nude mouse MMTV-Wnt1 model assessed as tumor growth inhibition at 0.3 mg/kg, po qd administered for 2 weeks relative to control; type: functional
[21] = Efflux ratio of permeability in human Caco2 cells; type: ADME, cell-based; conditions: Caco-2
[22] = Clearance in dog by LC/MS/MS analysis; type: ADME, Canis lupus familiaris; conditions: in vivo
Mus musculus [23] = assay: Inhibition of Axin2 mRNA level in nude mouse MMTV-Wnt1 model at 3 mg/kg administered as oral gavage measured at 5 hrs by RT-PCR analysis; type: functional
[24] = Apparent permeability across apical to basolateral side of human Caco2 cells; type: ADME, cell-based; conditions: Caco-2
[25] = Volume of distribution at steady state in Balb/c mouse at 2 mg/kg, iv after 24 hrs by LC/MS/MS analysis; type: ADME, organism-based; conditions: in vivo, read-out: Vdss
[26] = Clearance in Balb/c mouse at 2 mg/kg, iv after 24 hrs by LC/MS/MS analysis; type: ADME, organism-based; conditions: in vivo
[27] = Terminal half life in dog by LC/MS/MS analysis; type: ADME, Canis lupus familiaris; conditions: in vivo, read-out: beta t1/2 (converted)
[28] = Volume of distribution at steady state in dog by LC/MS/MS analysis; type: ADME, Canis lupus familiaris; conditions: in vivo, read-out: Vdss
[29] = Oral bioavailability in dog by LC/MS/MS analysis; type: ADME, organism-based, Canis lupus familiaris; conditions: in vivo
Cytochrome P450 2C9 = Cytochrome P450 2C9 (Homo sapiens, UniProt P11712); assay: Inhibition of CYP2C9 (unknown origin); type: ADME
Cytochrome P450 2D6 = Cytochrome P450 2D6 (Homo sapiens, UniProt P10635); assay: Inhibition of CYP2D6 (unknown origin); type: ADME
[30] = Protein binding in rat plasma by rapid equilibrium dialysis; type: ADME, cell-free; conditions: read-out: PPB (converted)
Cytochrome P450 = assay: Inhibition of CYP450 (unknown origin) up to 10 uM; type: ADME, protein assay; conditions: human

Sequence of Cytochrome P450 3A4 (P08684 whole entry): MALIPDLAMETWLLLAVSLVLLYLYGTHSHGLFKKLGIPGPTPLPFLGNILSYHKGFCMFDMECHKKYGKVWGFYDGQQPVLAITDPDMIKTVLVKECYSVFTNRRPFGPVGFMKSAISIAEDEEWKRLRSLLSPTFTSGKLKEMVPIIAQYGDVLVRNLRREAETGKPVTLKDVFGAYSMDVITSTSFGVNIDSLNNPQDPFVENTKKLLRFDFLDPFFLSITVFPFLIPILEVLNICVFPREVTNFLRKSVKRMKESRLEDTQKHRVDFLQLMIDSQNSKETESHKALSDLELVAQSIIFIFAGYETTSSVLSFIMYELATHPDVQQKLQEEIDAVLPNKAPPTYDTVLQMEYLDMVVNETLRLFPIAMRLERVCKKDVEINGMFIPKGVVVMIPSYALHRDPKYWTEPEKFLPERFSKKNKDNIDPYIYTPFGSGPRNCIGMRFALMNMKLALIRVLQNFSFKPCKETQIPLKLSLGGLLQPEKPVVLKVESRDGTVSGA
Sequence of Cytochrome P450 2D6 (P10635 whole entry): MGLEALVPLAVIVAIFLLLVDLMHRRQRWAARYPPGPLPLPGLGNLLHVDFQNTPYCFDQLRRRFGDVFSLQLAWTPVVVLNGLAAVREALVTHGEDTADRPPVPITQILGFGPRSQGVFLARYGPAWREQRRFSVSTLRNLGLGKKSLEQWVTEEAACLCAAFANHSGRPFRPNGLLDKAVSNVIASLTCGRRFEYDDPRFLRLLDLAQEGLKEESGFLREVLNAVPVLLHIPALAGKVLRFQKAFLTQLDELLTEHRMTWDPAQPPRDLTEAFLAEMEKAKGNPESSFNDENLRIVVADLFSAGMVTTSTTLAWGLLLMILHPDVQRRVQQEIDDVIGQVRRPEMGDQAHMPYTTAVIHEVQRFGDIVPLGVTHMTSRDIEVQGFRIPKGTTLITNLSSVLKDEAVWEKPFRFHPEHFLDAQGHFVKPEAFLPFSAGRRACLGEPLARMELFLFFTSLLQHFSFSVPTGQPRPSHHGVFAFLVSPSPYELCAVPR
Sequence of Cytochrome P450 2C9 (P11712 whole entry): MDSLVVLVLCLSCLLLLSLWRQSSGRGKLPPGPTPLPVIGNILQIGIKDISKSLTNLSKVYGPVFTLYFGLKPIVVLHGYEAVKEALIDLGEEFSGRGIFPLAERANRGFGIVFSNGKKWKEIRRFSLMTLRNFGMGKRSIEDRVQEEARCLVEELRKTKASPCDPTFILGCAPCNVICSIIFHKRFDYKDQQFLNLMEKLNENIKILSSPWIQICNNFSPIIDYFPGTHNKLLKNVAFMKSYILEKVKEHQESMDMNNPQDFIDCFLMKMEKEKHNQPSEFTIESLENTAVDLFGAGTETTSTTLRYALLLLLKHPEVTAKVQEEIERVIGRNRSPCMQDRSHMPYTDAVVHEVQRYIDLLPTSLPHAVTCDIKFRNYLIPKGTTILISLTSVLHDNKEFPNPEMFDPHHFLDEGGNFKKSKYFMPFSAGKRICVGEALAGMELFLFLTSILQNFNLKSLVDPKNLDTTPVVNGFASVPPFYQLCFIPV

Compound: Cc1cc(-c2ccc(CC(=O)Nc3ccc(-c4cnccn4)cn3)cn2)ccn1
- solubility at 24 h [1]: 16 µM (≈ 6.12 µg/mL)

Compound: CCCn1c(SCC(=O)Nc2nc3ccc(OC)cc3s2)nnc1-c1ccncc1
- IC50 [2]: 12 nM
- Cmax/dose [3]: 14 nM
- AUC/dose [4]: 0.03 µM·h
- IC50 [5]: 8 nM

Compound: Cc1cc(-c2ccc(CC(=O)Nc3ccc(-c4ccccc4)cn3)cn2)ccn1
- IC50 [2]: 0.2 nM
- solubility at 24 h [1]: 6 µM (≈ 2.28 µg/mL)

Compound: O=C(Cc1ccc(-c2ccncc2)cc1)Nc1nc(-c2ccccc2)cs1
- IC50 [2]: 5.5 nM

Compound: COC(=O)N1CCN(c2ccc(NC(=O)Cc3cnc(-c4ccnc(C)c4)c(C)c3)nc2)CC1
- solubility at 24 h [1]: > 175 µM

Compound: Cc1cc(-c2ccc(OC(=O)Nc3ccc(-c4ccccc4)cc3)cc2)ccn1
- IC50 [2]: > 10000 nM

Compound: CC(=O)N1CCN(c2ccc(NC(=O)Cc3cnc(-c4ccnc(F)c4)c(C)c3)nc2)CC1
- T/C (Mus musculus [6]): -74%
- Activity [7]: Non-Toxic
- IC50 [2]: 0.8 nM
- T/C (Mus musculus [8]): -84%
- fraction unbound [9]: 0.091
- bioavailability [10]: 84%
- half-life [11]: 2.44 h
- IC50 (Cytochrome P450 3A4): > 10000 nM
- bioavailability [12]: 96%
- solubility at 24 h [1]: 350 µM (≈ 157 µg/mL)
- half-life [13]: 2.77 h
- fraction unbound [14]: 0.12
- inhibition (Mus musculus [15]): inactive
- fraction unbound [16]: 0.288
- clearance [17]: 5.35 mL/min/kg
- fraction unbound [18]: 0.05
- Vd [19]: 0.7 L/kg
- T/C (Mus musculus [20]): 15%
- efflux ratio [21]: 3.2
- clearance [22]: 0.67 mL/min/kg
- inhibition in vivo at 3 mg/kg (Mus musculus [23]): 90%
- Papp A→B [24]: 7.5 ×10⁻⁶ cm/s
- Vd [25]: 0.57 L/kg
- clearance [26]: 5.33 mL/min/kg
- half-life [27]: 8.86 h
- Vd [28]: 0.25 L/kg
- bioavailability [29]: 72%
- IC50 (Cytochrome P450 2C9): > 10000 nM
- IC50 (Cytochrome P450 2D6): > 10000 nM
- fraction unbound [30]: 0.169

Compound: Cc1cc(-c2ccc(CC(=O)Nc3ccc(-c4ccccn4)cn3)cn2)ccn1
- solubility at 24 h [1]: 17 µM (≈ 6.48 µg/mL)

Compound: Cc1cc(-c2ncc(CC(=O)Nc3ccc(-c4ccccn4)cn3)cc2C)ccn1
- IC50 [2]: 0.4 nM
- solubility at 24 h [1]: 32 µM (≈ 12.7 µg/mL)

Compound: Cc1cc(CC(=O)Nc2ccc(N3CCNCC3)cn2)cnc1-c1ccnc(F)c1
- IC50 [2]: 24 nM

Compound: Cc1cc(-c2ncc(CC(=O)Nc3ccc(-c4cnccn4)cn3)cc2C)ccn1 [WNT-974]
- IC50 [2]: 0.4 nM
- solubility at 24 h [1]: 210 µM (≈ 83.3 µg/mL)

Compound: COc1ccc2nc(C(=O)NCc3ccc(-c4ccncc4)cc3)sc2c1
- IC50 [2]: 380 nM

Compound: COc1ccc2nc(NC(=O)Cc3ccc(-c4ccncc4)cc3)sc2c1
- Cmax/dose [3]: 4100 nM
- AUC/dose [4]: 26 µM·h
- IC50 (Cytochrome P450 3A4): 800 nM
- clearance [26]: 2.49 mL/min/kg

Compound: Cc1cc(CC(=O)Nc2ccc(-c3cnccn3)cn2)cnc1-c1ccnc(CO)c1
- IC50 [2]: 26 nM

Compound: CC(=O)N1CCN(c2ccc(NC(=O)Cc3cnc(-c4ccnc(C)c4)c(C)c3)nc2)CC1
- IC50 [2]: 0.7 nM
- solubility at 24 h [1]: > 175 µM

Compound: Cc1cc(-c2ccc(CC(=O)Nc3ccc(-c4ccccc4)cn3)cc2)ccn1
- IC50 [2]: 0.7 nM
- solubility at 24 h [1]: < 2 µM

Compound: COc1ccc2nc(NC(=O)Cc3ccc(-c4ccnc(C)c4)cc3)sc2c1
- inhibition (INH) (Cytochrome P450): Not Active

Compound: Cc1cc(CC(=O)Nc2ccc(-c3cnccn3)cn2)cnc1-c1ccnc(F)c1
- solubility at 24 h [1]: 105 µM (≈ 42 µg/mL)

Compound: Cc1cc(-c2ccc(NC(=O)Nc3ccc(-c4ccccc4)cc3)cc2)ccn1
- IC50 [2]: > 10000 nM
